Measurements as given in ChEMBL document CHEMBL6083277, “Discovery of SZJK-0421: A Novel Potent, Low Toxicity, Selective Second Generation of CRM1 Inhibitor for the Treatment of Both Hematological and Solid Tumors” (J Med Chem, 2024).

Columns and labels:
[1] = Cmax in male Sprague-Dawley rat at 10 mg/kg, po measured upto 30 hrs by LC-MS/MS analysis; type: ADME, organism-based; settings: in vivo
[2] = Metabolic stability in rat liver microsomes assessed as intrinsic clearance measured upto 60 mins in presence of NADPH by LC/MS-MS analysis; type: ADME, Microsome; settings: read-out: CLH
LAMA-84 = test: Antiproliferative activity against human LAMA-84 cells assessed as inhibition of cell growth incubated for 72 hrs by celltiter-glo assay; type: functional, cell-based; settings: LAMA-84, 72 h
[3] = Toxicity in BALB/c mouse assessed as shortened intestinal tract at 90 to 120 mg/kg, po administered once daily for 21 days; type: organism-based; settings: in vivo, 504 h, dose 90-120 mg/kg, time 21 day

Cmax [1]: 899 ng/mL | microsomal CLint [2]: 7.2 µL/min/mg
SMILES: CONC(=O)/C(=C/n1cnc(-c2cc(C(F)(F)F)cc(C(F)(F)F)c2)n1)c1cncnc1
IC50 (LAMA-84): 1.48 µM | Activity [3]: Non-toxic
